In PMC10708537, “Tetrahydrocurcumin Derivatives Enhanced the Anti-Inflammatory Activity of Curcumin: Synthesis, Biological Evaluation, and Structure–Activity Relationship Analysis” (Molecules, 2023):
Entries after “also recorded” stand apart in the source; their conditions may differ. Read-outs that look alike come from different tables or passages of the source. Each block holds one compound with its values, some of them ahead of it.

Experiments:
PGE2 = test: LPS-induced PGE2 production in peritoneal macrophages (ELISA); type: cell-based, C57BL/6 mice; details: 30 μM, LPS 10 ng/mL, 6 h (Figure 6)
Description: (§1) Peritoneal macrophages were obtained by washing the peritoneal cavities of C57B1/6 mice five days after intraperitoneal instillation of 2 mL of 3% thioglycollate. Macrophages were seeded in RPMI containing 10% FCS at 2 × 10^5 cells/well in 96-well plates and cultured for 2 h at 37 °C under a 5% CO2 atmosphere. Adherent cells were pretreated with the compounds (30 μM) 1 h before stimulation with LPS (10 ng/mL). For dose–response experiments, compounds were used at concentrations of 1, 3, 10, and 30 μM. Supernatants were collected 6 h after LPS stimulation. Control and experimental treatments were performed in the presence of 0.5% DMSO, as the compounds were solubilized in this solvent. The concentrations of TNF-α, IL-6, and PGE2 were determined by ELISA (R&D System) following the manufacturer’s protocol.

IL-6 = test: LPS-induced IL-6 production in peritoneal macrophages (ELISA); type: cell-based, C57BL/6 mice
Description: as §1
(§2) Results from the cytokine measurements and cytotoxicity assays were analyzed using the statistical software package GraphPad Prism 9.4.0. All data are presented as the mean ± S.E.M. Statistical analysis was performed by Student’s t-test. The differences between samples were considered significant when p < 0.05. The 50% inhibitory concentration (IC50) was calculated by adjusting a sigmoidal dose–response curve following the standard procedure in GraphPad Prism 5.

[1] = system: macrophages from the peritoneal cavities of C57BL/6 mice; test: MTT cytotoxicity assay on macrophages; type: cell-based; details: 30 μM, after supernatant collection (Figure 4C)
Description: After removing the supernatants, 100 μL of 0.5 mg/mL MTT in RPMI was added to each well. Cells were incubated overnight at 37 °C, and formazan crystals were dissolved in 100 µL of 0.04 M HCl in isopropanol. Then, the absorbance was measured at 570 nm using an ELISA plate reader. Cell viability was calculated using the following formula: % viability: [(OD sample) × 100%]/(OD control). Nonstimulated cells represented 100% viability.

TNF-α = test: LPS-induced TNF-α production in peritoneal macrophages (ELISA); type: cell-based, C57BL/6 mice; details: for IC50: macrophages pretreated 1 h, supernatant 6 h, two independent experiments in triplicate, read-out: IC50 ± S.D. (μM) TNF-α
Description: as §1, §2

[2] = Mus musculus, Macrophage, macrophages pretreated 1 h, LPS 10 ng/mL, supernatant 6 h, two independent experiments in triplicate, read-out: IC50 ± S.D. (μM) IL-6
[3] = Mus musculus, Peritoneal macrophage, converted from IL-6 IC50 of this work, used for 3D-QSAR, read-out: Experimental pIC50 (converted)
[4] = dose-response, 10 µM (Figure 5B)
[5] = Mus musculus, Macrophage, LPS 10 ng/mL
[6] = dose-response, lowest concentration 1 µM (Figure 5B)
[7] = dose-response, all concentrations tested (1, 3, 10, 30 μM) (Figure 5A)
[8] = single concentration 30 μM, LPS 10 ng/mL, 6 h (Figure 4A)

Compound: C#CCOC(=O)CCC(=O)Oc1ccc(CCC(=O)/C=C(\O)CCc2ccc(OC(=O)CCC(=O)OCC#C)c(OC)c2)cc1OC [Compound 3, (Z)-O,O′-((3-Hydroxy-5-oxohept-3-ene-1,7-diyl)bis(2-methoxy-4,1-phenylene)) di(prop-2-yn-1-yl) Disuccinate]
- reduction of PGE2 production (PGE2): significantly reduced; also recorded: highest activity
- inhibition of IL-6 production (IL-6; single concentration 30 μM, LPS 10 ng/mL, 6 h (Figure 4B)): All compounds, except compound 3, inhibited the production of IL-6

- IC50 (IL-6; [2]): 4.28 ± 4.88 µM
- IC50 (IL-6; [3]): 4.27 µM
Compound: COc1cc(CCC(=O)/C=C(\O)CCc2ccc(OC(=O)CCC(=O)OC3c4ccccc4-c4ccccc43)c(OC)c2)ccc1OC(=O)CCC(=O)OC1c2ccccc2-c2ccccc21 [Compound 4, (Z)-di(9H-Fluoren-9-yl)O,O′-((3-hydroxy-5-oxohept-3-ene-1,7-diyl)bis(2-methoxy-4,1-phenylene)) Disuccinate]
- inhibition of IL-6 production (IL-6; [4]): inhibited

- IC50 (IL-6; [2]): 9.13 ± 5.9 µM
- IC50 (IL-6; [3]): 9.12 µM
Compound: COc1cc(CCC(=O)/C=C(\O)CCc2ccc(OC(=O)CCC(=O)OC3Cc4ccccc4C3)c(OC)c2)ccc1OC(=O)CCC(=O)OC1Cc2ccccc2C1 [Compound 5, (Z)-bis(2,3-Dihydro-1H-inden-2-yl) O,O′-((3-hydroxy-5-oxohept-3-ene-1,7-diyl)bis(2-methoxy-4,1-phenylene)) Disuccinate]

Compound: COc1cc(CCC(=O)/C=C(\O)CCc2ccc(OC(=O)CCC(=O)OC(c3ccccc3)c3ccccc3)c(OC)c2)ccc1OC(=O)CCC(=O)OC(c1ccccc1)c1ccccc1 [Compound 6, (Z)-Dibenzhydryl O,O′-((3-hydroxy-5-oxohept-3-ene-1,7-diyl)bis(2-methoxy-4,1-phenylene)) Disuccinate]
- cytotoxicity (cell viability, MTT) [1]: cytotoxic

Compound: COc1cc(CC/C(O)=C/C(=O)CCc2ccc(OC(=O)CCC(=O)O[C@@H]3C[C@H](C)CC[C@H]3C(C)C)c(OC)c2)ccc1OC(=O)CCC(=O)O[C@@H]1C[C@@H](C)CC[C@@H]1C(C)C [Compound 7, O,O′-(((Z)-3-Hydroxy-5-oxohept-3-ene-1,7-diyl)bis(2-methoxy-4,1-phenylene)) bis((1R,2S,5R)-2-Isopropyl-5-methylcyclohexyl) Disuccinate]
- cytotoxicity (cell viability, MTT) [1]: cytotoxic

- IC50 (IL-6; [2]): 3.48 ± 4.39 µM
- IC50 (IL-6; [3]): 3.47 µM
- IC50 (TNF-α; [5]): 3.21 ± 4.52 µM
Compound: COc1cc(CCC(=O)/C=C(\O)CCc2ccc(OC(=O)CCC(=O)OC3CCCc4ccccc43)c(OC)c2)ccc1OC(=O)CCC(=O)OC1CCCc2ccccc21 (stereo not shown) [Compound 8, (Z)-O,O′-((3-Hydroxy-5-oxohept-3-ene-1,7-diyl)bis(2-methoxy-4,1-phenylene)) bis(1,2,3,4-Tetrahydronaphthalen-1-yl) Disuccinate]
- inhibition of IL-6 production (IL-6; [4]): inhibited

Compound: COc1cc(CCC(=O)/C=C(\O)CCc2ccc(OC(=O)CCC(=O)OCc3ccccc3)c(OC)c2)ccc1OC(=O)CCC(=O)OCc1ccccc1 [Compound 9, (Z)-Dibenzyl O,O′-((3-Hydroxy-5-oxohept-3-ene-1,7-diyl)bis(2-methoxy-4,1-phenylene)) Disuccinate]
- cytotoxicity (cell viability, MTT) [1]: cytotoxic

- IC50 (IL-6; [2]): 3.66 ± 4.21 µM
- IC50 (IL-6; [3]): 3.63 µM
Compound: COc1cc(CCC(=O)/C=C(\O)CCc2ccc(OC(=O)CCC(=O)OC3CCCC3)c(OC)c2)ccc1OC(=O)CCC(=O)OC1CCCC1 [Compound 10, (Z)-Dicyclopentyl O,O′-((3-Hydroxy-5-oxohept-3-ene-1,7-diyl)bis(2-methoxy-4,1-phenylene)) Disuccinate]

- IC50 (IL-6; [2]): 0.17 ± 0.21 µM
- IC50 (IL-6; [3]): 0.17 µM
Compound: COC(=O)CCC(=O)Oc1ccc(CCC(=O)/C=C(\O)CCc2ccc(OC(=O)CCC(=O)OC)c(OC)c2)cc1OC [Compound 11, (Z)-O,O′-((3-Hydroxy-5-oxohept-3-ene-1,7-diyl)bis(2-methoxy-4,1-phenylene)) dimethyl Disuccinate]
- reduction of PGE2 production (PGE2): significantly reduced; also recorded: highest activity
- inhibition of IL-6 production (IL-6; [6]): inhibited
- inhibition of TNF-α production (TNF-α; dose-response, 3 µM (Figure 5A)): showed an effect only when used at a concentration of 3 µM

- IC50 (IL-6; [2]): 0.72 ± 0.38 µM
- IC50 (IL-6; [3]): 0.724 µM
- IC50 (TNF-α; [5]): 0.7 ± 0.1 µM
Compound: C=CCOC(=O)CCC(=O)Oc1ccc(CCC(=O)/C=C(\O)CCc2ccc(OC(=O)CCC(=O)OCC=C)c(OC)c2)cc1OC [Compound 12, (Z)-Diallyl O,O′-((3-hydroxy-5-oxohept-3-ene-1,7-diyl)bis(2-methoxy-4,1-phenylene)) Disuccinate]
- reduction of PGE2 production (PGE2): significantly reduced; also recorded: highest activity; also recorded: more biologically active than tetrahydrocurcumin
- inhibition of IL-6 production (IL-6; [6]): inhibited
- inhibition of TNF-α production (TNF-α; [7]): inhibited
- inhibition of TNF-α production (TNF-α; [8]): inhibited

Compound: Curcumin [Compound 1, reference compound]
- IC50 (IL-6; Table S1, compounds presented in the current work, read-out: IC50 ± S.D. (uM) IL-6): 6.85 ± 2.5 µM

Compound: Tetrahydrocurcumin [Compound 2, reference compound]
- reduction of PGE2 production (PGE2): but not PGE2 production
- Experimental pIC50 (IL-6; converted from IL-6 IC50 of this work, used for 3D-QSAR): 6.77
- inhibition of IL-6 production (IL-6; [4]): inhibited
- inhibition of IL-6 production (IL-6; [6]): inhibited
- IC50 (IL-6; macrophages pretreated 1 h, LPS 10 ng/mL, supernatant 6 h, two independent experiments in triplicate, read-out: IC50 ± S.D. (μM) IL-6): 0.17 ± 0.2 µM
- inhibition of TNF-α production (TNF-α; [7]): inhibited
- IC50 (TNF-α; LPS 10 ng/mL): 0.18 ± 0.18 µM
- inhibition of TNF-α production (TNF-α; [8]): inhibited
